Molecules are shown by their SMILES. Entries after “also recorded” stand apart in the source; their conditions may differ.

These results are taken from patent publication US12139505B2, “Compositions useful in therapy of autophagy-related pathologies, and methods of making and using the same” (The University of Toledo, priority 2017, dated 2024).

The assay relates to SH-SY5Y cells. The assay is described as follows: Western blot for LC3-II (autophagy induction with bafilomycin-A1). The class given is cell-based, human. Here is the method:
(FIG. 35B). […] In a dose dependent manner with a maximum of 6 μM.
2-n-hexyl-LKE-P drug solutions in CCM from 0.1 to 100 μM were prepared as above for the viability assay except that the drug solutions contained 10 nM bafilomycin A1. For positive control: 50 nM rapamycin in CCM containing 10 nM bafilomycin A1 was used. For negative control: 1 μL of DMSO is dissolved in every 100 μL of CCM containing 10 nM bafilomycin A1. When SH-SY5Y cells were 85-90% confluent, 300,000 cells per well were seeded into 12-well plates. Cells were exposed to four concentrations of 2-n-hexyl-LKE-P, positive control and negative control for 4 hours at 37° C. in 5% CO2 in air atmosphere. Subsequently, the cells were washed with PBS, next, 0.25% Trypsin/EDTA was used to aid in detaching the cells and CCM was then added to neutralize the Trypsin/EDTA and wash the cells from the dish. Washed cells were collected in a centrifuge tube for concentration. After centrifugation at 2000 RPM for 5 minutes, the cells were re-suspended in PBS and re-centrifuged to pellets. The supernatant was then discarded and the cell pellets were frozen in −20° C. freezer. 50 μL lysis buffer (RIPA buffer plus, 1 mM sodiumorthovanadate, 5 mM β-glycerophosphate and 1:200 mammalian protease inhibitor cocktail) was added to the cells and the cells were re-suspended in the lysis buffer. […] The membranes were then ready for imaging.
For orientation: In western blotting, separated proteins are transferred to a membrane and probed.

Regarding `CCCCCCC1=C(P(=O)(O)O)N[C@H](C(=O)OCC)CS1` [2-n-hexyl-LKE-P], under “in the presence of bafilomycin-A1”, the “autophagy stimulation (LC3-I, LC3-II)” value is recorded as “stimulates autophagy in a dose dependent manner; also recorded: able to stimulate autophagy”. Besides, the “concentration of maximum autophagy stimulation” value (in the presence of bafilomycin-A1, 0.1 to 10 μM tested) was 6 µM.
